Measured values from EP1832586A1, “Thiazole-piperidine derivatives in treatment of diseases of liver and the pancreas” (Oridis Biomed Forschungs- und Entwicklungs GmbH, priority 2006, dated 2007).

What was measured:
Type in all cases: cell-based
HeLa = test: CellTiter-Glo luminescent cell viability (proliferation) assay, HeLa; conditions: Hela (human ovarian carcinoma [sic]) proliferation, 48 hours incubation, 10% FCS
Method: (§1) To practically assess the impact of the thiazole-piperidine derivatives, e.g. derivatives of piperidinyl-thiazole carboxylic acid and/or piperidinyl thiazole carboxamide, in the treatment and/or prevention of diseases according to the invention, the inhibition of cell proliferation is determined by using a luminescent cell viability assay (CellTiter-Glo®; Promega, Madison, USA). The assay is based on the relation that the ATP content is directly proportional to the number of cells present in the culture. The CellTiter-Glo® assay is performed to measure the proliferation rate of human hepatoma (HuH7, PLC/PRF/5, Hep3B, SK-Hep1), human hepatoblastoma (HepG2), human colon carcinoma (CX-2), human breast cancer (SK-Br-3), human ovarian carcinoma (HeLa) and human pancreatic carcinoma (DAN-G) cell lines. […] In particular, the compound according to formula (1) wherein R^1 is 4-isopropoxycarbonylphenyl, R^2 is 3-indolylmethyl, R^3 is hydrogen, R^4 is hydrogen, n is zero, A is a single bond, B is carbonyl, and wherein the residue R^1NR^3CO is connected to the carbon atom bound to nitrogen of the thiazole ring (compound no. XI in Table 1) inhibits proliferation of the human cell lines HepG2 and Hep3B with 10.8 and 3.5 µM, respectively.
(§2) To determine the inhibition of cell proliferation a luminescent cell viability assay (CellTiter-Glo®; Promega, Madison, USA) is implemented. The assay is based on the relation that the ATP content is directly proportional to the number of cells present in the culture (Technical Bulletin No. 228 "CellTiter-Glo® Luminescent Cell viability Assay", Revised 2/04. Promeg, Madison, USA). The CellTiter-Glo® assay is performed to measure the proliferation rate of human hepatoma (HuH7, PLC/PRF/5, Hep3B, SK-Hep1), human hepatoblastoma (HepG2), human colon carcinoma (CX-2), human breast cancer (SK-Br-3), human ovarian carcinoma (HeLa) and human pancreatic carcinoma (DAN-G) cell lines. 3000 viable cells (viability ≥ 90%) are seeded in opaque-walled 96-well plates and incubated for 24 hours in DMEM, supplemented with 2 mM glutamin. Cell proliferation is stimulated by addition of FCS to a final concentration of 10% (v/v). Simultaneously the compounds (see Table 1 and 2) are added in a concentration range of 0 to 20 µM. Triplicates are measured for each concentration. Cells and compounds (see Table 1 and 2) are incubated for a period of 48 hours in a volume of 140 µl cell culture medium (10% (v/v) FCS, 2 mM Glutamin, DMEM). The compounds according to the invention are dissolved in 60% to 100% (v/v) DMSO at a concentration of 2 mM. The final DMSO concentration under assay conditions never exceeds 1% (v/v). Throughout the assay cells are kept in a humidified incubator (95% rH) at 37°C and 5% CO2.
(§3) The final cell number is determined after 48 hour of incubation. Therefore 140 µl CellTiter-Glo®Reagent is added in each well. The contents are mixed on an orbital shaker for 2 minutes at room temperature. After subsequent incubation for additional 10 minutes at room temperature the luminescence signal is recorded within 30 min. EC50 values are calculated using the four-parametric Hill equation (Sigma Plot). Control values are: • 1) 10% (v/v) FCS, 2 mM glutamin, DMEM -> maximum cell number • 2) 2 mM glutamin, DMEM -> initial cell number

HuH7 = test: CellTiter-Glo luminescent cell viability (proliferation) assay, HuH7; conditions: inhibition of HuH7 (human hepatoma) proliferation, 48 hours incubation, 10% FCS
Method: as §1, §2, §3

DAN-G = test: CellTiter-Glo luminescent cell viability (proliferation) assay, DAN-G; conditions: DAN-G (human pancreatic carcinoma) proliferation, 48 hours incubation, 10% FCS
Method: as §1, §2, §3

CX-2 = test: CellTiter-Glo luminescent cell viability (proliferation) assay, CX-2; conditions: CX-2 (human colon carcinoma) proliferation, 48 hours incubation, 10% FCS
Method: as §1, §2, §3

SK-Br-3 = test: CellTiter-Glo luminescent cell viability (proliferation) assay, SK-Br-3; conditions: Sk-Br-3 (human breast cancer) proliferation, 48 hours incubation, 10% FCS
Method: as §1, §2, §3

| SMILES | EC50 (HeLa) [µM] | EC50 (HuH7; Huh-7) [µM] | EC50 (SK-Br-3) [µM] | EC50 (HuH7; Homo sapiens, Huh-7, 48 h) [µM] | EC50 (DAN-G) [µM] | EC50 (CX-2) [µM] |
| --- | --- | --- | --- | --- | --- | --- |
| CCOc1ccccc1N1CCN(C(=O)c2csc(C3CCN(C(=O)CC4C=Nc5ccccc54)CC3)n2)CC1 (stereo not shown) [XII] |  |  |  | 13.4 |  |  |
| O=C(Nc1ccc2c(c1)OCCO2)c1csc(C2CCN(C(=O)NC3C=C(c4ccccc4)N=N3)CC2)n1 (stereo not shown) [LII] |  |  |  | 19.5 |  |  |
| COc1ccc(NC(=O)c2csc(C3CCN(C(=O)NC4C=C(c5ccccc5)N=N4)CC3)n2)cn1 (stereo not shown) [XIII] | 10.1 |  | 12.3 | 5.3 | 8.9 | > 20 |
| Cn1nc(-c2ccccc2)cc1NC(=O)c1csc(C2CCN(C(=O)c3c(F)cccc3Cl)CC2)n1 [XLIX] |  |  |  | 3.03 |  |  |
| Cc1cnc(NC(=O)c2csc(C3CCN(C(=S)Nc4ccc(N(C)C)cc4)CC3)n2)s1 [XLII] |  |  |  | 2.2 |  |  |
| O=C(Nc1ccc2c(c1)C(=O)OC2)c1csc(C2CCN(C(=O)CC3C=Nc4ccccc43)CC2)n1 (stereo not shown) [LIX] |  |  |  | 7.13 |  |  |
| COc1ccc(CNC(=O)c2csc(C3CCN(C(=O)CC4C=Nc5ccccc54)CC3)n2)cc1 (stereo not shown) [XLI] |  |  |  | 5.9 |  |  |
| CCOc1cccc(C(=O)NNC(=O)c2csc(C3CCN(C(=O)CC4C=Nc5ccccc54)CC3)n2)c1 (stereo not shown) [LVIII] |  |  |  | 4.58 |  |  |
| Cc1ccc2cc(NC(=O)c3csc(C4CCN(C(=O)CC5C=Nc6ccccc65)CC4)n3)ccc2n1 (stereo not shown) [V] | 8.79 |  | 10.8 | 4.68 | 6.9 | > 20 |
| O=C(Nc1cc(-c2ccccc2)[nH]n1)c1csc(C2CCN(C(=O)Cc3c[nH]c4ccccc34)CC2)n1 [I] |  | 5.35 |  |  |  |  |
| O=C(CC1C=Nc2ccccc21)N1CCC(c2nc(C(=O)N3CCN(c4ncccn4)CC3)cs2)CC1 (stereo not shown) [LIII] | 23.6 |  | 19.5 | 1.63 | 18.2 | > 20 |
| Cn1nc(-c2ccccc2)cc1NC(=O)c1csc(C2CCN(C(=O)C3CCCCC3)CC2)n1 [LIV] |  |  |  | 5.5 |  |  |
| Cc1ccc(C(=O)NNC(=O)c2csc(C3CCN(C(=O)CC4C=Nc5ccccc54)CC3)n2)s1 (stereo not shown) [LV] |  |  |  | 4.04 |  |  |
| O=C(NC1CCc2ccccc21)c1csc(C2CCN(C(=O)CC3C=Nc4ccccc43)CC2)n1 (stereo not shown) [XLVII] | 13.6 |  | 11.2 | 9.15 | 9.7 | 19.9 |
| COc1ccc(CNC(=O)c2csc(C3CCN(C(=O)CC4C=Nc5ccccc54)CC3)n2)cc1OC (stereo not shown) [IV] | 10.3 |  | > 20 | 3.76 | 7.52 | > 20 |
| O=C(CC1C=Nc2ccccc21)N1CCC(c2nc(C(=O)N3CCN(c4c(Cl)cncc4Cl)CC3)cs2)CC1 (stereo not shown) [XLIII] |  |  |  | 4.74 |  |  |

More lines, main results first:

| EC50 (HeLa) [µM] | EC50 (HuH7; Huh-7) [µM] | EC50 (SK-Br-3) [µM] | EC50 (HuH7; Homo sapiens, Huh-7, 48 h) [µM] | SMILES | EC50 (DAN-G) [µM] | EC50 (CX-2) [µM] |
| --- | --- | --- | --- | --- | --- | --- |
| 18 | 1.54 | 18.9 |  | O=C(Nc1nccs1)c1csc(C2CCN(C(=O)Cc3c[nH]c4ccccc34)CC2)n1 [X] | 2.53 | > 20 |
|  | 2.19 |  |  | COc1ccc(C(=O)N2CCC(c3nc(C(=O)Nc4cc(-c5cccs5)n[nH]4)cs3)CC2)c(OC)c1OC [XXXIX] |  |  |
| 10.5 |  | > 20 |  | Cc1nc(C)c(C(=O)N2CCC(c3nc(C(=O)NC4C=C(c5cccs5)N=N4)cs3)CC2)s1 (stereo not shown) [XVI] | 7.99 | > 20 |
| 22.9 | 2.98 | 23.8 |  | O=C(NCc1ccccc1[N+](=O)[O-])c1csc(C2CCN(C(=O)Cc3c[nH]c4ccccc34)CC2)n1 [XL] | 9.01 | 14.9 |
| 23.5 |  | 18.9 |  | Cc1nc(NC(=O)c2csc(C3CCN(C(=O)Cc4c[nH]c5ccccc45)CC3)n2)sc1C [XVII] | 5.59 | > 20 |
|  |  |  | 7.56 | CN(NC(=O)c1csc(C2CCN(C(=O)CC3C=Nc4ccccc43)CC2)n1)c1cnc2ccccc2n1 (stereo not shown) [XLV] |  |  |
|  |  |  | 4.2 | C=CCSc1ncccc1C(=O)N1CCC(c2nc(C(=O)Nc3cc(C(C)(C)C)n[nH]3)cs2)CC1 [XXX] |  |  |
|  |  |  | 4.24 | COc1ccc(C(N)=O)cc1NC(=O)c1csc(C2CCN(C(=O)Cc3ccccc3Cl)CC2)n1 [XXXIV] |  |  |
